Measurements from patent publication US11596636B2, “Tailored combinatorial epigenetic therapies for P53 gain-of-function tumors” (The Trustees of the University of Pennsylvania, priority 2014, dated 2023).

Assays:
[1] = target: T1, menin-MLL1 interaction (His-SUMO-Menin-Δ460-519, FITC-MLL peptide) (Homo sapiens, UniProt O00255, DEL460-519); experiment: Fluorescence polarization competition assay, FITC-MLL peptide displacement from menin; format: binding; conditions: FITC-MLL peptide 1.5 nM, His-SUMO-Menin-Δ460-519 5 nM
T1 construct: made in house; host or cells: Rosetta (DE3-pLysS) E. coli
T1 sequence (O00255 with tags, fused parts or gaps DEL460-519): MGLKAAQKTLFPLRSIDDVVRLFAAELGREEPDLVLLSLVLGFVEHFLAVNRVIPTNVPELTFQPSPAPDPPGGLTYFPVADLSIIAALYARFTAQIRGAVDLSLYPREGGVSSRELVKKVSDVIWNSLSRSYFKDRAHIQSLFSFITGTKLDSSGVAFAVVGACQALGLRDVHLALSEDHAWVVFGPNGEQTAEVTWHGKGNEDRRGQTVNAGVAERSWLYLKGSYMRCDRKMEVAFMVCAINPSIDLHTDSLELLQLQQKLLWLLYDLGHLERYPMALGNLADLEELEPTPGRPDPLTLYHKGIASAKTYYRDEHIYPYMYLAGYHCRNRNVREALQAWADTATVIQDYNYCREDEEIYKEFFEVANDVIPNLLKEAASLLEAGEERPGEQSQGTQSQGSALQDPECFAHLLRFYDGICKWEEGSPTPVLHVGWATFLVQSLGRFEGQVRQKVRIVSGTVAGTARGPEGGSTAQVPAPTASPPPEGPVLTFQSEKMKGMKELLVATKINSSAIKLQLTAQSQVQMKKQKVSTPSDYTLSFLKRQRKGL
Method: (§1) FIG. 15, comprising FIG. 15A through FIG. 15G, depicts the results of example experiments. (FIG. 15A) Chemical structure of ISC-30 compound [N,N′-bis(4-aminophenyl)-N,N′-dimethylethylenediamine]. (CID: 193110, NCI: 129674, Chemical formula: C16H22N4 Molecular weight: 270.37) (FIG. 15B) His-SUMO-MeninΔ460-519 (Menin) was titrated into wells containing fluorescence polarization buffer and FITC-MLL peptide (1.5 nM) to allow fluorescence polarization monitoring and calculation of the binding affinity. (FIG. 15C) Wild-type (WT) or Mutant (Mut) competitor MLL peptides were titrated into wells containing fluorescence polarization butter, His-SUMO-MeninΔ460-519 (5 nM), and FITC-MLL peptide (1.5 nM) and the inhibition of fluorescence polarization was monitored and utilized to normalize the ISC30 inhibition. All measurements were blanked by subtracting the background signal taken from wells containing only buffer. mP=millipolarization. (FIG. 15D) Peptide displacement assay measuring ISC-30 inhibition of menin-MLL1 interaction by the decrease in fluorescence polarization (FP) signal of a FITC labeled MLL1 peptide upon ISC-30 induced dissociation from menin. […]
ISC30 was titrated into the wells of a 384-well plate containing fluorescence polarization buffer (40 mM HEPES pH 7.9, 150 mM NaCl, 0.01% Triton-X-100, 10 mM 2-mercaptoethanol), FITC-MLL peptide (1.5 nM), and His-SUMO-Menin-Δ460-519 (5 nM). […]

[2] = tested on: Hoxa cluster genes in AT-1 cells (MLL-AF9 leukemia cell line); experiment: HoxA5 and HoxA9 mRNA levels in AT-1 cells; format: cell-based, mouse; conditions: after 2 days of treatment, vs DMSO
Method: as §1, with “menin. (FIG. 15E) HoxA5 and HoxA9 mRNA levels after 2 days of ISC-30 or DMSO (vehicle control) treatment in AT-1 cells (mouse MLL-AF9 leukemia cell line). (FIG. 15F) Growth analysis of AT-1 cells treated with DMSO or 10 μM ISC-30.” for “menin.”

[3] = tested on: AT-1 cells (MLL-AF9 leukemia cell line); experiment: Growth analysis of AT-1 cells; format: cell-based, mouse; conditions: 10 μM ISC-30 vs DMSO
Method: as §1, with “All measurements were blanked by subtracting the background signal taken from wells containing only buffer. mP=millipolarization.” left out
200,000 cells were seeded on 950 mm^2 surface area (one well of 6-well plate) on Day 0. Cell number was measured every two days with Countess Automated Cell Counter (Life Technologies) following its standard procedure, and then 200,000 cells were plated back for the next counting. […]

[4] = target: T2, menin-MLL1 interaction in MDAH087 cells (p53 GOF) (Homo sapiens, UniProt O00255); experiment: Endogenous co-IP of Menin and MLL1 in LFS MDAH087 cells; format: cell-based; conditions: different concentrations, vs DMSO
T2 construct: endogenous in cells; host or cells: LFS MDAH087 (p53 R248W) and MDAH041 (p53 null) cells
T2 sequence (O00255 1-610): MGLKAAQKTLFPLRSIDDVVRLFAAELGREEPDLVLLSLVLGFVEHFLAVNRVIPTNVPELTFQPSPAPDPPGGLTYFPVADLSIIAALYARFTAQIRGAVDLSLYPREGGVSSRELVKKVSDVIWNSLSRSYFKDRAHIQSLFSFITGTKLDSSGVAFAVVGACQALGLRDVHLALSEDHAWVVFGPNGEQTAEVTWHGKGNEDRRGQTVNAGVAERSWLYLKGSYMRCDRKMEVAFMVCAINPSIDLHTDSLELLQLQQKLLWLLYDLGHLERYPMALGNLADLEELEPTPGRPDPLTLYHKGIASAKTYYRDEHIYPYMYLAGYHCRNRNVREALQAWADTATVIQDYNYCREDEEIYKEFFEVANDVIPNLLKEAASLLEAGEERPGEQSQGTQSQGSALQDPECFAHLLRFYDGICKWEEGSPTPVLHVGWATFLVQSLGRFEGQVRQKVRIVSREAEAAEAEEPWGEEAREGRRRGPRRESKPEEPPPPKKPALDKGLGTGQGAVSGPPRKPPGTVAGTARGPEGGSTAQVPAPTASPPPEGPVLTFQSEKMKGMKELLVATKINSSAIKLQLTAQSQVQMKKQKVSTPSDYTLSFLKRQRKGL
Method: (FIG. 10A) Endogenous co-IP of Menin and MLL1 in LFS MDAH087 cells upon treatment of DMSO or different concentrations of ISC-30. (FIG. 10B) & (FIG. 10C) Growth curve analysis of LFS (FIG. 10B) MDAH087 and (FIG. 10C) MDAH041 cells treated with DMSO, […] ISC-30 Menin inhibitor. (FIG. 10D) & (FIG. 10E) Growth curve analysis of LFS (FIG. 10D) MDAH087 and (FIG. 10E) MDAH041 cells treated with DMSO, […], or 20 μM MI-2-2 Menin inhibitor. (FIG. 10F) and (FIG. 10G) Growth curve analysis of LFS (FIG. 10F) MDAH087 and (FIG. 10G) MDAH041 cells treated with DMSO, 2 μM, or 4 μM OICR-9429 WDR5 inhibitor.
Flag tagged ETS2 protein was expressed in HEK293T cells, which was then subjected to immunoprecipitation with Flag antibody conjugated Dynabeads. Then after washes, HA tagged WT or GOF p53 (generated by in vitro translation method (Thermo #88881)) was added to co-immunoprecipitate with Flag-ETS2. Endogenous co-IP experiments were performed in buffer containing: 20 mM Tris, pH 8.0, 137 mM NaCl, 1 mM MgCl2, 1 mM CaCl2, 1% NP-40, 10% glycerol, plus complete protease and phosphatase inhibitor (without EDTA), plus 12.5 U/ml benzonase (Novagen, 70746).

[5] = target: T3, menin-MLL1 interaction in MDAH041 cells (p53 null) (Homo sapiens, UniProt O00255); experiment: Endogenous co-IP of Menin and MLL1 in LFS MDAH041 cells; format: cell-based; conditions: different concentrations, vs DMSO
T3 construct: endogenous in cells; host or cells: LFS MDAH087 (p53 R248W) and MDAH041 (p53 null) cells
T3 sequence (O00255 1-610): T2 sequence (O00255 1-610)

[6] = tested on: MDAH087 cells (p53 R248W, GOF p53); experiment: Growth curve analysis of LFS MDAH087 cells; format: cell-based, human; conditions: OICR-9429 2 μM or 4 μM, vs DMSO
Method: (§2) (FIG. 10A) Endogenous co-IP of Menin and MLL1 in LFS MDAH087 cells upon treatment of DMSO or different concentrations of ISC-30.
(§3) Li-Fraumeni Syndrome cell lines MDAH087 and MDAH041 were obtained from Dr. Michael A. Tainsky (Wayne State University, Detroit, Mich.) as a kind gift, and were cultured at 3% oxygen, in standard tissue culture medium.
(§4) 200,000 cells were seeded on 950 mm^2 surface area (one well of 6-well plate) on Day 0. Cell number was measured every two days with Countess Automated Cell Counter (Life Technologies) following its standard procedure, and then 200,000 cells were plated back for the next counting. For shRNA mediated knockdown experiments, cells were seeded seven days after the initial infection of shRNA-containing lentivirus, during which puromycin selection was completed and cells were already put back to normal growth medium. For small compound inhibitor treatment experiments, inhibitors were added on Day 0 as cells were seeded and refreshed every other day as cells were counted and plated back.

MDAH041 cells (p53 null) = experiment: Growth curve analysis of LFS MDAH041 cells; format: cell-based, human; conditions: OICR-9429 2 μM or 4 μM, vs DMSO
Method: as §2, §3, §4

[7] = tested on: mll1 in MCF7 cells (WT p53); experiment: mll1 mRNA (RT-qPCR) and MLL1 protein (western blot) upon Nutlin treatment in MCF7 cells; conditions: Nutlin vs DMSO
From the text: (FIG. 13B) RT-qPCR analysis of mRNA expression level changes upon DMSO or Nutlin treatment in MCF7 cells. (FIG. 13C) Western blot analysis of MLL1 protein levels upon DMSO or Nutlin treatment in MCF7 cells.

[8] = tested on: H3K9ac in MDA468 cells (p53 R273H); experiment: Western blot of H3K9ac in MDA468 cells with mutant p53 knockdown; format: cell-based, human; conditions: etoposide treatment
From the text: FIG. 4A depicts western blots depicting changes in histone modification (H3K4me3 and H3K9ac) in MDA468 cell line in response to control or p53 knockdown. FIG. 4B depicts the change in the abundance of H3K4me3 and H3K9ac following p53 GOF mutant knockdown, as well as the functional implication that the Rho and Ras pathways are most affected by p53 GOF mutant knockdown.
Experiments were next conducted to evaluate the functional outcomes of the p53 GOF regulation of histone modification. FIG. 4A (left) depicts a Western blot analysis of the MDA468 cell line in response to control or p53 knockdown. It is shown that H3K9Ac decreases in response to knockdown of mutant p53, but no other histone modifications appear to be affected.

## CN(CCN(C)c1ccc(N)cc1)c1ccc(N)cc1 [ISC-30, N,N′-bis(4-aminophenyl)-N,N′-dimethylethylenediamine]
[1]
  concentration at which the compound started to inhibit menin-MLL1 interaction: approximately 2 μM
[1]; normalized IC50, read-out: IC50, inhibition of menin-MLL1 interaction
  IC50: 32 µM
[2]
  expression of Hoxa cluster genes (HoxA5 and HoxA9 mRNA levels): decreased expression of Hoxa cluster genes
[3]
  growth of AT-1 cells: reduced
[4]
  menin-MLL1 interaction at endogenous levels (co-IP): blocked menin-MLL1 interaction at endogenous levels in a dose-dependent manner
[5]
  menin-MLL1 interaction at endogenous levels (co-IP): blocked menin-MLL1 interaction at endogenous levels in a dose-dependent manner
[6]
  GOF p53 cell growth: dose-dependent inhibition
MDAH041 cells (p53 null)
  p53 null cell growth: very little effect

## CC1(C)CN=C(N2CCN(c3ncnc4sc(CC(F)(F)F)cc34)CC2)S1 [MI-2-2]
[6]
  GOF p53 cell growth: dose-dependent inhibition

## COc1ccc(C2=NC(c3ccc(Cl)cc3)C(c3ccc(Cl)cc3)N2C(=O)N2CCNC(=O)C2)c(OC(C)C)c1 (stereo not shown) [Nutlin]
[7]
  mll1 expression upon stabilization and elevation of WT p53 levels: not upregulated

## CN1CCN(c2ccc(-c3cccc(CN4CCOCC4)c3)cc2NC(=O)c2c[nH]c(=O)cc2C(F)(F)F)CC1 [OICR-9429]
[6]
  GOF p53 cell growth: dose-dependent inhibition
MDAH041 cells (p53 null)
  p53 null cell growth: little effect

## COc1cc([C@@H]2c3cc4c(cc3[C@@H](O[C@@H]3O[C@@H]5CO[C@@H](C)O[C@H]5[C@H](O)[C@H]3O)[C@H]3COC(=O)[C@H]23)OCO4)cc(OC)c1O [etoposide]
[8]
  loss of H3K9ac in response to knockdown of mutant p53: not affected
